This is an account of results in patent publication US20240109918A1, “HETEROCYCLIC COMPOUNDS AND USES THEREOF” (Kumquat Biosciences Inc., priority 2022, published 2024).

For one test, the target named is T1, KRASG12D (Homo sapiens, UniProt P01116, G12D).
T1 construct: made in house; host or cells: E. coli BL21 (DE3)
Put plainly: Bio-Biochem-PPI-HTRF Ras-SOS1 interaction assay (KRAS G12D). As to conditions: 5 nM. The test is classed as biochemical. As to the method: (§1) The assay buffer can contain −5 mM HEPES pH 7.4, ˜150 mM NaCl, ˜ 1 mM DTT, 0.05% BSA and 0.0025% (v/v) Igepal. A Ras working solution is prepared in an assay buffer containing typically a suitable amount of the protein construct (e.g., GST-tagged K-Ras mutant) and the FRET donor (e.g., antiGST-Eu(K) from Cisbio, France). A SOS1 working solution is prepared in an assay buffer containing suitable amount of the protein construct (e.g., His-hSOS1) and the FRET acceptor (e.g., anti-6His-XL665 from Cisbio, France). A suitable amount of the protein construct will depend on the range of activity or range of IC50 values being detected or under investigation. For detecting IC50 within a range of 500 nM, the protein constructs of the same range of molarity can be utilized. […] A fixed volume of DMSO with or without test compound is transferred into a 384-well plate. Ras working solution is added to all wells of the test plate. SOS1 working solution is added to all wells except for those that are subsequently filled the inhibitor control solution. Upon incubation for about 10 minutes or longer, the fluorescence is measured with a M1000Pro plate reader (Tecan) using HTRF detection (excitation 337 nm, emission 1:620 nm, emission 2: 665 nm). Compounds are tested in duplicates at different concentrations (for example, 10 μM, 2.5 μM, 0.63 μM, 0.16 μM, 0.04 μM, 0.01 μM test compound). The ratiometric data (i.e., emission 2 divided by emission 1) is used to calculate IC50 values against Ras using GraphPad Prism (GraphPad software). Following this general procedure, samples were tested with or without a subject compound disclosed herein including compounds exemplified in Table 1 to assess their abilities to inhibit a mutant K-Ras relative to another mutant K-Ras or wildtype K-Ras. Signaling output measured in terms of IC50 values can be obtained, a ratio of IC50 against one mutant relative to another mutant can be calculated. For instance, a selective reduction of K-Ras G12D signaling output can be evidenced by a ratio greater than one. In particular, a selective reduction of K-Ras G12D signaling relative to K-Ras WT signaling is evidenced as the ratio of IC50 (against K-Ras WT) to IC50 (against K-Ras G12D) is greater than 1.
A general note: TR-FRET usually uses a lanthanide donor and a delayed reading to cut background.

A further test addresses T2, KRASwt (Homo sapiens, UniProt P01116).
T2 construct: made in house; host or cells: E. coli BL21 (DE3)
Put plainly: Bio-Biochem-PPI-HTRF Ras-SOS1 interaction assay (KRAS wt). It is filed as biochemical. Conditions: 5 nM. As to the method: as §1

T2 sequence (P01116 1-188 isoform P01116-2): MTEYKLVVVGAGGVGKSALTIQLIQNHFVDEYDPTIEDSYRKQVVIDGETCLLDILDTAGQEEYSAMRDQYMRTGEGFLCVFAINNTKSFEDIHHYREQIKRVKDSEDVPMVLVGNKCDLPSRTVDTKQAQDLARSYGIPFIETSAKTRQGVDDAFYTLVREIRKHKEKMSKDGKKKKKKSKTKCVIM
T1 sequence (P01116 1-188 isoform P01116-2 G12D): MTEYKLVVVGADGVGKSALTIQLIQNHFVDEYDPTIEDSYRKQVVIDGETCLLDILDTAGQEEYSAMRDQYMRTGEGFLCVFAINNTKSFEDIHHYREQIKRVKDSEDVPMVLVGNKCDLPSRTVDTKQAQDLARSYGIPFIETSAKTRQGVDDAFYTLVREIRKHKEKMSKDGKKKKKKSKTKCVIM

As to `CC1(C)CN(c2nc(OC[C@@]34CCCN3C[C@H](F)C4)nc3c(F)c(-c4ccc(F)c5sc(N)c(C#N)c45)c(Cl)cc23)CC2(CNC2)O1` [compound 101, 2-amino-4-(6-chloro-4-(6,6-dimethyl-5-oxa-2,8-diazaspiro[3.5]nonan-8-yl)-8-fluoro-2-(((2R,7aS)-2-fluorotetrahydro-1H-pyrrolizin-7a(5H)-yl)methoxy)quinazolin-7-yl)-7-fluorobenzo[b]thiophene-3-carbonitrile], the IC50 on KRASG12D and at KRASwt was < 5 µM in each case.
With `N#Cc1c(N)sc2c(F)ccc(-c3c(Cl)cc4c(N5CCCC6(CN(C(=O)[C@@H]7C[C@H]7C#N)C6)C5)nc(OC[C@@]56CCCN5C[C@H](F)C6)nc4c3F)c12` [compound 104, 2-amino-4-(6-chloro-4-(2-((1R,2R)-2-cyanocyclopropane-1-carbonyl)-2,6-diazaspiro[3.5]nonan-6-yl)-8-fluoro-2-(((2R,7aS)-2-fluorotetrahydro-1H-pyrrolizin-7a(5H)-yl)methoxy)quinazolin-7-yl)-7-fluorobenzo[b]thiophene-3-carbonitrile], the half-inhibitory concentration (IC50) against KRASG12D and at KRASwt was < 5 µM in each case.
On to `C[C@H](Oc1nc(N2CCCC3(CN(C(=O)[C@@H]4C[C@H]4C#N)C3)C2)c2cc(Cl)c(-c3ccc(F)c4sc(N)c(C#N)c34)c(F)c2n1)[C@@H]1CCCN1C` [compound 105, 2-amino-4-(6-chloro-4-(2-((1R,2R)-2-cyanocyclopropane-1-carbonyl)-2,6-diazaspiro[3.5]nonan-6-yl)-8-fluoro-2-((S)-1-((S)-1-methylpyrrolidin-2-yl)ethoxy)quinazolin-7-yl)-7-fluorobenzo[b]thiophene-3-carbonitrile], for which the IC50 on KRASG12D and against KRASwt was < 5 µM each time.
With `Nc1nc2c(-c3c(Cl)cc4c(N5CCOC6(CNC6)C5)nc(OC[C@@]56CCCN5C[C@H](F)C6)nc4c3F)ccc(F)c2s1` [compound 107, 4-(6-chloro-8-fluoro-2-(((2R,7aS)-2-fluorotetrahydro-1H-pyrrolizin-7a(5H)-yl)methoxy)-4-(5-oxa-2,8-diazaspiro[3.5]nonan-8-yl)quinazolin-7-yl)-7-fluorobenzo[d]thiazol-2-amine], the IC50 on KRASG12D and against KRASwt was < 5 µM each time.
`Cc1ccnc(C(C)C)c1-n1c(=O)nc(N2CCOC3(CNC3)C2)c2cc(F)c(-c3ccc(F)c4sc(N)c(C#N)c34)nc21` [compound 108, 2-amino-7-fluoro-4-(6-fluoro-1-(2-isopropyl-4-methylpyridin-3-yl)-2-oxo-4-(5-oxa-2,8-diazaspiro[3.5]nonan-8-yl)-1,2-dihydropyrido[2,3-d]pyrimidin-7-yl)benzo[b]thiophene-3-carbonitrile]: the IC50 against KRASG12D and on KRASwt was ≥ 5 µM each time.
Consider `C[C@H](Oc1nc(N2CCOC3(CNC3)C2)c2cc(Cl)c(-c3ccc(F)c4sc(N)c(C#N)c34)c(F)c2n1)[C@@H]1CCCN1C` [compound 110, 2-amino-4-(6-chloro-8-fluoro-2-((S)-1-((S)-1-methylpyrrolidin-2-yl)ethoxy)-4-(5-oxa-2,8-diazaspiro[3.5]nonan-8-yl)quinazolin-7-yl)-7-fluorobenzo[b]thiophene-3-carbonitrile], for which the 50% inhibitory concentration (IC50) at KRASG12D and at KRASwt was < 5 µM throughout.
Consider `N#Cc1c(N)sc2c(F)ccc(-c3c(Cl)cc4c(N5CCCC6(CCNC6)C5)nc(OC[C@@]56CCCN5C[C@H](F)C6)nc4c3F)c12` (stereo partly drawn) [compound 111, 2-amino-4-(6-chloro-8-fluoro-2-(((2R,7aS)-2-fluorotetrahydro-1H-pyrrolizin-7a(5H)-yl)methoxy)-4-(2,7-diazaspiro[4.5]decan-7-yl)quinazolin-7-yl)-7-fluorobenzo[b]thiophene-3-carbonitrile], for which the IC50 against KRASG12D and against KRASwt was < 5 µM each time.
Consider `Cc1ccnc(C(C)C)c1-n1c(=O)nc(N2CCOC3(CNC3)C2)c2cc(F)c(-c3c(O)cccc3F)nc21` [compound 112, 6-fluoro-7-(2-fluoro-6-hydroxyphenyl)-1-(2-isopropyl-4-methylpyridin-3-yl)-4-(5-oxa-2,8-diazaspiro[3.5]nonan-8-yl)pyrido[2,3-d]pyrimidin-2(1H)-one], for which the half-inhibitory concentration (IC50) at KRASG12D and against KRASwt was ≥ 5 µM in each case.
For the molecule `C#Cc1c(F)ccc2cc(O)cc(-c3ncc4c(N5CCCC6(CN(C(=O)[C@@H]7C[C@H]7C#N)C6)C5)nc(O[C@@H](C)[C@@H]5CCCN5C)nc4c3F)c12` [compound 113, (1R,2R)-2-(6-(7-(8-ethynyl-7-fluoro-3-hydroxynaphthalen-1-yl)-8-fluoro-2-((S)-1-((S)-1-methylpyrrolidin-2-yl)ethoxy)pyrido[4,3-d]pyrimidin-4-yl)-2,6-diazaspiro[3.5]nonane-2-carbonyl)cyclopropane-1-carbonitrile], the half-inhibitory concentration (IC50) on KRASG12D and on KRASwt was < 5 µM throughout.
For the molecule `Nc1nc2c(-c3c(Cl)cc4c(N5CCNC6(CNC6)C5)nc(OC[C@@]56CCCN5C[C@H](F)C6)nc4c3F)ccc(F)c2s1` [compound 116, 4-(6-chloro-8-fluoro-2-(((2R,7aS)-2-fluorotetrahydro-1H-pyrrolizin-7a(5H)-yl)methoxy)-4-(2,5,8-triazaspiro[3.5]nonan-8-yl)quinazolin-7-yl)-7-fluorobenzo[d]thiazol-2-amine], the IC50 at KRASG12D and on KRASwt was < 5 µM each time.
As for `CN(C)C(=O)N1CC2(CCCN(c3nc(OC[C@@]45CCCN4C[C@H](F)C5)nc4c(F)c(-c5ccc(F)c6sc(N)c(C#N)c56)c(Cl)cc34)C2)C1` [compound 119, 6-(7-(2-amino-3-cyano-7-fluorobenzo[b]thiophen-4-yl)-6-chloro-8-fluoro-2-(((2R,7aS)-2-fluorotetrahydro-1H-pyrrolizin-7a(5H)-yl)methoxy)quinazolin-4-yl)-N,N-dimethyl-2,6-diazaspiro[3.5]nonane-2-carboxamide], the concentration for half-maximal inhibition (IC50) at KRASG12D and against KRASwt was < 5 µM in each case.
On to `N#Cc1c(N)sc2c(F)ccc(-c3c(Cl)cc4c(N5CCCC6(CN(C(=O)C7CC7)C6)C5)nc(OC[C@@]56CCCN5C[C@H](F)C6)nc4c3F)c12` [compound 120, 2-amino-4-(6-chloro-4-(2-(cyclopropanecarbonyl)-2,6-diazaspiro[3.5]nonan-6-yl)-8-fluoro-2-(((2R,7aS)-2-fluorotetrahydro-1H-pyrrolizin-7a(5H)-yl)methoxy)quinazolin-7-yl)-7-fluorobenzo[b]thiophene-3-carbonitrile], for which the 50% inhibitory concentration (IC50) on KRASG12D and against KRASwt was < 5 µM throughout.
`C[C@H](Oc1nc(N2CCCC3(CNC3)C2)c2cc(Cl)c(-c3ccc(F)c4sc(N)c(C#N)c34)c(F)c2n1)[C@@H]1CCCN1C` [compound 122, 2-amino-4-(6-chloro-8-fluoro-2-((S)-1-((S)-1-methylpyrrolidin-2-yl)ethoxy)-4-(2,6-diazaspiro[3.5]nonan-6-yl)quinazolin-7-yl)-7-fluorobenzo[b]thiophene-3-carbonitrile]: the concentration for half-maximal inhibition (IC50) against KRASG12D and on KRASwt was < 5 µM throughout.
Consider `C[C@H](Oc1nc(N2CCCC3(CN(C(=O)C(F)(F)F)C3)C2)c2cc(Cl)c(-c3ccc(F)c4sc(N)c(C#N)c34)c(F)c2n1)[C@@H]1CCCN1C` [compound 123, 2-amino-4-(6-chloro-8-fluoro-2-((S)-1-((S)-1-methylpyrrolidin-2-yl)ethoxy)-4-(2-(2,2,2-trifluoroacetyl)-2,6-diazaspiro[3.5]nonan-6-yl)quinazolin-7-yl)-7-fluorobenzo[b]thiophene-3-carbonitrile], for which the IC50 against KRASG12D and against KRASwt was < 5 µM in each case.
Regarding `CN1CCC[C@H]1COc1nc(N2CCCC3(CN(C(N)=O)C3)C2)c2cc(Cl)c(-c3cccc4sc(N)nc34)c(F)c2n1` [compound 124, 6-(7-(2-aminobenzo[d]thiazol-4-yl)-6-chloro-8-fluoro-2-(((S)-1-methylpyrrolidin-2-yl)methoxy)quinazolin-4-yl)-2,6-diazaspiro[3.5]nonane-2-carboxamide], the concentration for half-maximal inhibition (IC50) at KRASG12D and against KRASwt was < 5 µM each time.
Consider `N#Cc1c(N)sc2c(F)ccc(-c3c(Cl)cc4c(N5CCCC6(CN(C(=O)C(F)F)C6)C5)nc(OC[C@@]56CCCN5C[C@H](F)C6)nc4c3F)c12` [compound 125, 2-amino-4-(6-chloro-4-(2-(2,2-difluoroacetyl)-2,6-diazaspiro[3.5]nonan-6-yl)-8-fluoro-2-(((2R,7aS)-2-fluorotetrahydro-1H-pyrrolizin-7a(5H)-yl)methoxy)quinazolin-7-yl)-7-fluorobenzo[b]thiophene-3-carbonitrile], for which the half-maximal inhibitory concentration (IC50) against KRASG12D and against KRASwt was < 5 µM throughout.

By IC50 is commonly meant the point on the concentration scale where inhibition reaches its midpoint.
